Earlier results as cited in article PMC4408534 (Journal of nuclear medicine : official publication, Society …, 2014).

What was measured:
[1] = system: human SSTR2-transfected cell membranes; details: ± SEM, ref [27]
[2] = system: rat SSTR2 expressed in AR42J membranes; details: ref [28]

Which “binding affinity, human SSTR2” value [1] does the source give for `C[C@@H](O)[C@H](NC(=O)[C@@H]1CSSC[C@H](NC(=O)[C@@H](Cc2ccccc2)NC(=O)CN2CCN(CC(=O)[O-])CCN(CC(=O)[O-])CCN(CC(=O)[O-])CC2)C(=O)N[C@@H](Cc2ccc(O)cc2)C(=O)N[C@H](Cc2c[nH]c3ccccc23)C(=O)N[C@@H](CCCCN)C(=O)N[C@@H]([C@@H](C)O)C(=O)N1)C(=O)O.[177Lu+3]` [177-Lu-Dotatate, Lu-177-Tyr3-octreotate] here?
The value was 1.5 ± 0.4 nM.

And the “binding affinity, rat SSTR2” value [2]?
The value was 0.21 to 0.23 nM.
